test system: vesicular stomatitis virus particles (VSV) pseudotyped with EboV Zaire GP; assay: microbe, parasite or virus in culture; assay type: cell-based; settings: Vesicular stomatitis virus

Compound	IC50
N#Cc1ccc(COc2ccc(Cl)cc2CN2CCN(C(=O)CNC(=O)C3CC34CCC(F)(F)CC4)CC2)nc1 (stereo not shown) [Compound 1622, 6,6-Difluoro-spiro[2.5]octane-1-carboxylic acid (2-{4-[5-chloro-2-(5-cyano-pyridin-2-ylmethoxy)-benzyl]-piperazin-1-yl)-2-oxo-ethyl)-amide]	19 nM
O=C(CC1CCC(F)(F)CC1)NCC(=O)N1CCN(Cc2cc(Br)ccc2F)CC1 [Compound 1370, N-(2-(4-(5-Bromo-2-fluorobenzyl)piperazin-1-yl)-2-oxoethyl)-2-(4,4-difluorocyclohexyl)acetamide]	~2200 nM
[2H]C([2H])(c1cc(Cl)ccc1NCc1cnco1)N1CCN(C(=O)CNC(=O)[C@@H]2CC23CCC(F)(F)CC3)CC1 [Compound 1587]	130 nM
[2H]C([2H])(c1cc(Cl)cc2cc[nH]c12)N1CCN(C(=O)CNC(=O)CC2CCC(F)(F)CC2)CC1 [Compound 1433, N-(2-(4-((5-Chloro-JH-indol-7-yl)methyl-d2)piperazin-1-yl)-2-oxoethyl)-2-(4,4-difluorocyclohexyl)acetamide]	> 5000 nM
COC(=O)c1ccc(COc2ccc(OC)cc2CN2CCN(C(=O)CNC(=O)CC34CC5CC(CC(C5)C3)C4)CC2)cc1 [Compound 1115]	1400 nM
COC(=O)c1ccc(COc2ccc(C)cc2CN2CCN(C(=O)CNC(=O)CC34CC5CC(CC(C5)C3)C4)CC2)cc1 [Compound 1114]	< 2000 nM
CC(=O)N1CCC(Oc2cc(F)cc(CN3CCN(C(=O)CNC(=O)C4CC45CCC(F)(F)CC5)CC3)c2)CC1 (stereo not shown) [Compound 1442]	600 nM
NC(=O)Nc1ccc(Cl)cc1CN1CCN(C(=O)CNC(=O)CC2CCC(F)(F)CC2)CC1 [Compound 1361, N-(2-(4-(5-Chloro-2-ureidobenzyl)piperazin-1-yl)-2-oxoethyl)-2-(4,4-difluorocyclohexyl)acetamide]	> 2000 nM
[2H]C([2H])(c1cc(Cl)ccc1NCc1ncccn1)N1CCN(C(=O)CNC(=O)[C@@H]2CC23CCC(F)(F)CC3)CC1 [Compound 1580]	700 nM
COc1ccc(Cl)cc1CN1CCN(C(=O)CNC(=O)CC2CCC(F)(F)CC2)CC1 [Compound 1384, N-(2-(4-(5-Chloro-2-methoxybenzyl)piperazin-1-yl)-2-oxoethyl)-2-(4,4-difluorocyclohexyl)acetamide]	330 nM
COC(=O)c1cccc(-c2ccc(O)c(CN3CCN(C(=O)CNC(=O)CC45CC6CC(CC(C6)C4)C5)CC3)c2)c1 [Compound 1310, Methyl 3′-((4-((2-((1R,3R,5S)-adamantan-1-yl)acetyl)glycyl)piperazin-1-yl)methyl)-4′-hydroxy-[1,1′-biphenyl]-3-carboxylate]	310 nM
Nc1ccc(-c2ccc(F)cc2)cc1CN1CCN(C(=O)CNC(=O)CC2CCC(F)(F)CC2)CC1 [Compound 1359, N-(2-(4-((4-Amino-4′-fluoro-[1,1′-biphenyl]-3-yl)methyl)piperazin-1-yl)-2-oxoethyl)-2-(4,4-difluorocyclohexyl)acetamide]	> 2000 nM
CN(C)c1ccc(CN2CCN(C(=O)CNC(=O)CC34CC5CC(CC(C5)C3)C4)CC2)cc1Cl [Compound 1251]	1700 nM
CCC1(CC)CC1C(=O)NCC(=O)N1CCN(Cc2cc(Cl)ccc2N)CC1 (stereo not shown) [Compound 1411, N-(2-(4-(2-amino-5-chlorobenzyl)piperazin-1-yl)-2-oxoethyl)-2,2-diethylcyclopropane-1-carboxamide]	140 nM
Nc1ccc(Cl)cc1CN1CCN(C(=O)CNC(=O)C2CC23CCC3)CC1 (stereo not shown) [Compound 1807, N-(2-(4-(2-Amino-5-chlorobenzyl)piperazin-1-yl)-2-oxoethyl)spiro[2.3]hexane-1-carboxamide]	2500 nM
O=C(CC12CC3CC(CC(C3)C1)C2)NCC(=O)N1CCN(Cc2cc(Cl)ccc2OC(F)(F)F)CC1 [Compound 1309, 2-((1R,3R,5S)-Adamantan-1-yl)-N-(2-(4-(5-chloro-2-(trifluoromethoxy)benzyl)piperazin-1-yl)-2-oxoethyl)acetamide]	420 nM
O=C(NCC(=O)N1CCN(Cc2cc(Cl)cc3cccnc23)CC1)C1CC12CCC(F)(F)CC2 (stereo not shown) [Compound 1405, N-(2-(4-((6-Chloroquinolin-8-yl)methyl)piperazin-1-yl)-2-oxoethyl)-6,6-difluorospiro[2.5]octane-1-carboxamide]	70 to 260 nM
O=C(CC1CCC(F)(F)CC1)NCC(=O)N1CCN(Cc2cccc3ncccc23)CC1 [Compound 1428, 2-(4,4-Difluorocyclohexyl)-N-(2-oxo-2-(4-(quinolin-5-ylmethyl)piperazin-1-yl)ethyl)acetamide]	> 5000 nM
O=C(CC1CCC(F)(F)CC1)NCC(=O)N1CCN(Cc2cc(Br)ccc2Cl)CC1 [Compound 1374, N-(2-(4-(5-Bromo-2-chlorobenzyl)piperazin-1-yl)-2-oxoethyl)-2-(4,4-difluorocyclohexyl)acetamide]	> 2000 nM
Nc1ccc(Cl)cc1CN1CCN(C(=O)CNC(=O)C2C3CC(F)(F)CC32)CC1 [Compound 1386, (1R,5S,6r)-N-(2-(4-(2-Amino-5-chlorobenzyl)piperazin-1-yl)-2-oxoethyl)-3,3-difluorobicyclo[3.1.0]hexane-6-carboxamide]	4400 nM

Compound	IC50
Nc1cc(Cl)cc(CN2CCN(C(=O)CNC(=O)C3CC34CCC(F)(F)CC4)CC2)c1 (stereo not shown) [Compound 1388, N-(2-(4-(3-Amino-5-chlorobenzyl)piperazin-1-yl)-2-oxoethyl)-6,6-difluorospiro[2.5]octane-1-carboxamide]	500 nM
CNC(=O)c1ccc(COc2ccccc2CN2CCN(C(=O)CNC(=O)CC34CC5CC(CC(C5)C3)C4)CC2)cc1 [Compound 1801]	2100 nM
NC(=O)c1ccc(Br)cc1CN1CCN(C(=O)CNC(=O)CC23CC4CC(CC(C4)C2)C3)CC1 [Compound 1364, 2-((4-((2-((1R,3R,5S)-Adamantan-1-yl)acetyl)glycyl)piperazin-1-yl)methyl)-4-bromobenzamide]	1900 nM
Nc1cc(OCc2ccc(Br)cc2)c(CN2CCN(C(=O)CNC(=O)CC34CC5CC(CC(C5)C3)C4)CC2)cc1Cl [Compound 1252]	800 nM
O=C(CC1CCC(F)(F)CC1)NCC(=O)N1CCN(Cc2cc(Cl)ccc2Cl)CC1 [Compound 1366, N-(2-(4-(2,5-Dichlorobenzyl)piperazin-1-yl)-2-oxoethyl)-2-(4,4-difluorocyclohexyl)acetamide]	> 2000 nM
N#Cc1ccc(Br)cc1CN1CCN(C(=O)CNC(=O)CC23CC4CC(CC(C4)C2)C3)CC1 [Compound 1329, 2-((1R,3R,5S)-Adamantan-1-yl)-N-(2-(4-(5-bromo-2-cyanobenzyl)piperazin-1-yl)-2-oxoethyl)acetamide]	310 nM
Nc1ccc(Cl)cc1CN1CCN(C(=O)CNC(=O)CC23CC4CC(CC(C4)C2)C3)CC1 [Compound 1321, 2-((1R,3R,5S)-Adamantan-1-yl)-N-(2-(4-(2-amino-5-chlorobenzyl)piperazin-1-yl)-2-oxoethyl)acetamide]	90 nM
O=C(CC12CC3CC(CC(C3)C1)C2)NCC(=O)N1CCN(Cc2cc(Cl)c(F)cc2F)CC1 [Compound 1307, 2-((1R,3R,5S)-Adamantan-1-yl)-N-(2-(4-(5-chloro-2,4-difluorobenzyl)piperazin-1-yl)-2-oxoethyl)acetamide]	370 nM
COC(=O)c1ccc(COc2ccccc2CN2CCN(C(=O)CNC(=O)CC(C)(C)c3ccccc3)CC2)cc1 [Compound 1279]	1500 nM
COC(=O)c1ccc(COc2ccccc2CN2CCN(C(=O)CNC(=O)C3CCC(F)(F)CC3)CC2)cc1 [Compound 1298]	1500 nM
O=C(CC1CCC(F)(F)CC1)NCC(=O)N1CCN(Cc2cc(Cl)ccc2O)CC1 [Compound 1403, N-(2-(4-(5-Chloro-2-hydroxybenzyl)piperazin-1-yl)-2-oxoethyl)-2-(4,4-difluorocyclohexyl)acetamide]	190 to 730 nM
COC(=O)c1ccc(COc2ccccc2CN2CCN(C(=O)CNC(=O)NC3CCC(F)(F)CC3)CC2)cc1 [Compound 1320, Methyl 4-((2-((4-(((4,4-difluorocyclohexyl)carbamoyl)glycyl)piperazin-1-yl)methyl)phenoxy)methyl)benzoate]	> 2000 nM
COC(=O)c1ccc(COc2ccccc2CN2CCN(C(=O)CNC(=O)OC3CCC(F)(F)CC3)CC2)cc1 [Compound 1319, Methyl 4-((2-((4-((((4,4-difluorocyclohexyl)oxy)carbonyl)glycyl)piperazin-1-yl)methyl)phenoxy)methyl)benzoate]	310 nM
CC(=O)N1CCC(COc2ccc(Cl)cc2CN2CCN(C(=O)CNC(=O)CC34CC5CC(CC(C5)C3)C4)CC2)CC1 [Compound 1301, N-(2-(4-(2-((1-acetylpiperidin-4-yl)methoxy)-5-chlorobenzyl)piperazin-1-yl)-2-oxoethyl)-2-((3r,5r,7r)-adamantan-1-yl)acetamide]	400 nM
CS(=O)(=O)c1ccc(Oc2cc(F)cc(CN3CCN(C(=O)CNC(=O)CC4CCC(F)(F)CC4)CC3)c2)cc1 [Compound 1460]	> 1000 nM
[2H]C([2H])(c1cc(Cl)ccc1NCc1ccc(S(C)(=O)=O)cn1)N1CCN(C(=O)CNC(=O)[C@@H]2CC23CCC(F)(F)CC3)CC1 [Compound 1586]	45 nM
Nc1ccc(Cl)cc1CN1CCN(C(=O)CNC(=O)C2CC23CCCC3)CC1 (stereo not shown) [Compound 1806, N-(2-(4-(2-Amino-5-chlorobenzyl)piperazin-1-yl)-2-oxoethyl)spiro[2.4]heptane-1-carboxamide]	240 nM
O=C(CC12CC3CC(CC(C3)C1)C2)NCC(=O)N1CCN(Cc2cc(Br)cc([N+](=O)[O-])c2)CC1 [Compound 1340, 2-((1R,3R,5S)-Adamantan-1-yl)-N-(2-(4-(3-bromo-5-nitrobenzyl)piperazin-1-yl)-2-oxoethyl)acetamide]	1270 nM
CC1(CC(=O)NCC(=O)N2CCN(Cc3cc(Cl)cc4cccnc34)CC2)CCOCC1 [Compound 1424]	2800 nM

same assay, conditions: read-out: IC50

Compound	IC50
COC(=O)c1ccc(Oc2cc(Cl)cc(CN3CCN(C(=O)CNC(=O)CC45CC6CC(CC(C6)C4)C5)CC3)c2)cc1 [Compound 1323, Methyl 4-(3-((4-((2-((1R,3R,5S)-adamantan-1-yl)acetyl)glycyl)piperazin-1-yl)methyl)-5-chlorophenoxy)benzoate]	15 nM
